AC50 data for 15 compounds are collected here from ChEMBL document CHEMBL5291721, “A preclinical secondary pharmacology resource illuminates target-adverse drug reaction associations of marketed drugs” (Nat Commun, 2023).

A word on the AC50: it is the concentration at which the activity in the assay is half-maximal. Low values mean greater potency, high ones weaker potency.

Each structure is given as a SMILES string. A value given as a limit tells only on which side of the number the result lay.

In experiment [1] the target is T1, 5-hydroxytryptamine receptor 1A (Homo sapiens, UniProt P08908).
T1 sequence (P08908 whole entry): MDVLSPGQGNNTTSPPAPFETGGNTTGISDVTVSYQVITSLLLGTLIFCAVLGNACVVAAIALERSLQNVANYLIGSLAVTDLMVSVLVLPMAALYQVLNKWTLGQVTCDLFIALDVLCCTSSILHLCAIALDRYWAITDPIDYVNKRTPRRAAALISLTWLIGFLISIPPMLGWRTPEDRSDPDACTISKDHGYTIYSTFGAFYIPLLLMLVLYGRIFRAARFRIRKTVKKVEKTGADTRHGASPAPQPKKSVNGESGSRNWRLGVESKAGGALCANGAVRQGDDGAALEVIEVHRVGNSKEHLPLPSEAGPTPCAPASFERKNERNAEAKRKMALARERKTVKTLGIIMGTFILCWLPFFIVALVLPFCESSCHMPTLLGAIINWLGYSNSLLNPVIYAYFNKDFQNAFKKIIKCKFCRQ
It is filed as functional, cell-based.

The target in experiment [2] is T2, Type-1 angiotensin II receptor (Homo sapiens, UniProt P30556).
T2 sequence (P30556 whole entry): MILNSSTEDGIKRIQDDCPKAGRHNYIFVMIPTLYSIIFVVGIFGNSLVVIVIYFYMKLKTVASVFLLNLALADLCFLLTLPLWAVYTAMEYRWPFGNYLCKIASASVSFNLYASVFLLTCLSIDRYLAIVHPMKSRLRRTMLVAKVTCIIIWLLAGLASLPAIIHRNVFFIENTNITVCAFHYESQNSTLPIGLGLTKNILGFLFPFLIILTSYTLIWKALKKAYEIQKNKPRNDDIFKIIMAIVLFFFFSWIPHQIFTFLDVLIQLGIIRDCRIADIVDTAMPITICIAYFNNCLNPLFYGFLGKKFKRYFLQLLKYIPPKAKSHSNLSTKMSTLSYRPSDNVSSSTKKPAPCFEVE

Experiment [3] addresses T3, Alpha-2C adrenergic receptor (Homo sapiens, UniProt P18825).
T3 sequence (P18825 whole entry): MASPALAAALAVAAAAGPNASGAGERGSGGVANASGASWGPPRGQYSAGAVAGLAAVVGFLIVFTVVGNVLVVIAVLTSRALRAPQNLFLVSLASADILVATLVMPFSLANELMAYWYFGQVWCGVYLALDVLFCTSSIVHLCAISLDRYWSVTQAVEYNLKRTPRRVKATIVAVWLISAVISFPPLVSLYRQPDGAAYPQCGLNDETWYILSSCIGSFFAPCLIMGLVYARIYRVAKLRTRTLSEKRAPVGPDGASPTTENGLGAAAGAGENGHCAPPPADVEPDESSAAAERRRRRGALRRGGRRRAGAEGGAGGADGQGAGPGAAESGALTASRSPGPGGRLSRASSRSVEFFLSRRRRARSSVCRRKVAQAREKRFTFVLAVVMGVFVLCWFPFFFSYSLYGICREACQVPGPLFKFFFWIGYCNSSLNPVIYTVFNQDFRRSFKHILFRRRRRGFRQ
It is filed as functional.

The target in experiment [4] is T4, 5-hydroxytryptamine receptor 3A (Homo sapiens, UniProt P46098).
T4 sequence (P46098 whole entry): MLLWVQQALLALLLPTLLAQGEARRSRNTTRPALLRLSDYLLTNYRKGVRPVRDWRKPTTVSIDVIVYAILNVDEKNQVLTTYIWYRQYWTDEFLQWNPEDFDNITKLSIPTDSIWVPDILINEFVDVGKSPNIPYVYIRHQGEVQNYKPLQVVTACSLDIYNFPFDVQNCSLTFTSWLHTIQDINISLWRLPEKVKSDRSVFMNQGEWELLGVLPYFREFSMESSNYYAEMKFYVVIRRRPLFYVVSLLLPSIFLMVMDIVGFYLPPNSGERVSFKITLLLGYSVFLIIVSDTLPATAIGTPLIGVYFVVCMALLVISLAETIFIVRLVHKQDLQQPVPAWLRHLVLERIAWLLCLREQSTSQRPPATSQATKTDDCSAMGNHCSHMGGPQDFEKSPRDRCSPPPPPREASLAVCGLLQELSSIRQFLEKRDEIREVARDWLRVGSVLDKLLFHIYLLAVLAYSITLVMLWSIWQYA
It is filed as functional.

Experiment [5] deals with Histamine H2 receptor (Homo sapiens, UniProt P25021). Format: functional, cell-based.
Sequence of Histamine H2 receptor (P25021 whole entry): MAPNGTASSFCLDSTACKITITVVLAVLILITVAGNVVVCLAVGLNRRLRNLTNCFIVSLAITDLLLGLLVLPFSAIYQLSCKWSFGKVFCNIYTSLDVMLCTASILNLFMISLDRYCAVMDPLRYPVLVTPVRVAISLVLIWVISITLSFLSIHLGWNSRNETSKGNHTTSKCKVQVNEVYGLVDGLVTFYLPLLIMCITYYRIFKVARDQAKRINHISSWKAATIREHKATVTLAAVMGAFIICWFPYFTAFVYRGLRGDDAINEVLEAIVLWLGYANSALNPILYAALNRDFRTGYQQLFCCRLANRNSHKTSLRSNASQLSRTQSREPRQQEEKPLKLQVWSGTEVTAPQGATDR
For experiment [6], the target named is T5, Cholecystokinin receptor type A (Homo sapiens, UniProt P32238).
T5 sequence (P32238 whole entry): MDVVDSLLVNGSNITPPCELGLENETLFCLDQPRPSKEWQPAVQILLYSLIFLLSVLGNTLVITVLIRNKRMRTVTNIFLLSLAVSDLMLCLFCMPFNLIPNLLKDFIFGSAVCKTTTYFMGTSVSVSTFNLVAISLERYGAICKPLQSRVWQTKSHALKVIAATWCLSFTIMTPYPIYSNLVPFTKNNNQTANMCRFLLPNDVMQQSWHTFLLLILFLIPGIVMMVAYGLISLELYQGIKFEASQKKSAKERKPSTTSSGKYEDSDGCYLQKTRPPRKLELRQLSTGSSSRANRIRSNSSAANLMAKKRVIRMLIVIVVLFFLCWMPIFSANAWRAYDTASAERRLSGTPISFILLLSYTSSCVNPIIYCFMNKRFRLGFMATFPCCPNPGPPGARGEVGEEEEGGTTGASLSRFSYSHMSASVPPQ

In experiment [7] the target is Histamine H3 receptor (Homo sapiens, UniProt Q9Y5N1).
Sequence of Histamine H3 receptor (Q9Y5N1 whole entry): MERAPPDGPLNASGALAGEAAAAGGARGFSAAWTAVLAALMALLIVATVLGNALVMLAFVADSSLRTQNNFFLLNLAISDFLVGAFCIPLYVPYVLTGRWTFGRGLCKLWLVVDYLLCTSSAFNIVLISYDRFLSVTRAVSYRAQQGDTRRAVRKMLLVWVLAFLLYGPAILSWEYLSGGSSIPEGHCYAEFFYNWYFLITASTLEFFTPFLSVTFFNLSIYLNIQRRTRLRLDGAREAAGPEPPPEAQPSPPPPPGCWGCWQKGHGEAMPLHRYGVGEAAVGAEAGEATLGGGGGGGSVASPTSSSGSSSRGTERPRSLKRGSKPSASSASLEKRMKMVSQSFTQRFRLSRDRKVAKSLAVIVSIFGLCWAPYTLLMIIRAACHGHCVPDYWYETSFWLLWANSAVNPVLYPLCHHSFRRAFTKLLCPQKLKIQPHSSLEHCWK
Experiment [8] concerns the target Mu-type opioid receptor (Homo sapiens, UniProt P35372). The experiment in a line: biochemical. Format: functional.
Experiment [9] has as its target Kappa-type opioid receptor (Homo sapiens, UniProt P41145).
Also: assay procedure not described here.

Sequence of Mu-type opioid receptor (P35372 whole entry): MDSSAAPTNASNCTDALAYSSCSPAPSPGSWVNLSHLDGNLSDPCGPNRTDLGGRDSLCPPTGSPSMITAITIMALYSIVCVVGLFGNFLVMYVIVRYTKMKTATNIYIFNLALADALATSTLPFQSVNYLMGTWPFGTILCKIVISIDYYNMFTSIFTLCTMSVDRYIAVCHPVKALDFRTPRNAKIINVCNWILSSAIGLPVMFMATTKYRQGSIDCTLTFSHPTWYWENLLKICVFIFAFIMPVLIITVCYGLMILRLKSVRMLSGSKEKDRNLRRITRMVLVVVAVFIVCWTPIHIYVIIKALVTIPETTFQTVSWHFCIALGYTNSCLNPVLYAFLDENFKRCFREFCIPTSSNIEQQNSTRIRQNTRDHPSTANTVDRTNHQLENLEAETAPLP
Sequence of Kappa-type opioid receptor (P41145 whole entry): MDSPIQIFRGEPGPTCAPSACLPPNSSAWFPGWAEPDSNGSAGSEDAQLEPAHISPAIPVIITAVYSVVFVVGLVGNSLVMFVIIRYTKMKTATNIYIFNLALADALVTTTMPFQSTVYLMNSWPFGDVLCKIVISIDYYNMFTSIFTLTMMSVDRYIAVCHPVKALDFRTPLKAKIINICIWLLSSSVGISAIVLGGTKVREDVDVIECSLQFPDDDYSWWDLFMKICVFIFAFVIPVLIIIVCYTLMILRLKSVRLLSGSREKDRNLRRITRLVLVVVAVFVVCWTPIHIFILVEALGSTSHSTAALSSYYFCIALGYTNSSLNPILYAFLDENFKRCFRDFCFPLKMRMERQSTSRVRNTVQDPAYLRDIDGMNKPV

`C[N+](C)(C)CCOP(=O)([O-])OC[C@H](O)CO`: the AC50 in experiment [1], in experiment [2], in experiment [3], in experiment [4], in [5] and in experiment [6] was above 30 µM throughout. The AC50 in experiment [7], in [8] and in experiment [9] was above 30 µM each time.

With `CN(C)C/C=C/C(=O)Nc1cc2c(Nc3ccc(F)c(Cl)c3)ncnc2cc1O[C@H]1CCOC1` [AFATINIB], the AC50 in experiment [1] is above 30 µM; in [2], above 30 µM; in experiment [3] it was above 30 µM; in experiment [4] it was above 30 µM; in experiment [5], above 30 µM; in experiment [6], 11 µM. The AC50 in experiment [7], in experiment [8] and in [9] was above 30 µM throughout.

Turning to `CCC1(c2ccc(N)cc2)CCC(=O)NC1=O` (stereo not given) [AMINOGLUTETHIMIDE], the AC50 in experiment [1], in experiment [2], in experiment [3], in [4], in experiment [5] and in [6] was above 30 µM each time. Also, the AC50 in experiment [7], in experiment [8] and in experiment [9] was above 30 µM each time.

As to `CC1=C(C(=O)OC(C)C)C(c2cccc([N+](=O)[O-])c2)C(C(=O)OC2CN(C(c3ccccc3)c3ccccc3)C2)=C(N)N1` (stereo not given) [AZELNIDIPINE], the AC50 in experiment [1] was above 30 µM; in experiment [2] it was 12 µM; in experiment [3], 13 µM; in experiment [4], above 30 µM; in experiment [5], above 30 µM; in experiment [6], above 30 µM. Also, the AC50 in experiment [7], in experiment [8] and in experiment [9] was above 30 µM throughout.

With `CC(Cc1cccc(C(F)(F)F)c1)NCCOC(=O)c1ccccc1` (stereo not given) [BENFLUOREX], the AC50 was 4.3 µM in experiment [1]; above 30 µM in [2]; 2.41 µM in experiment [3]; above 30 µM in [5]; above 30 µM in experiment [6]; above 30 µM in experiment [7]. Further, the AC50 in experiment [8] was 11 µM; in experiment [9], above 30 µM.

As for `NC[C@H]1CC[C@H](C(=O)Oc2ccc(CCC(=O)O)cc2)CC1` [CETRAXATE], the AC50 in experiment [1], in experiment [3], in experiment [4], in experiment [5], in [8] and in experiment [9] was above 30 µM in each case.

For the compound `CN[C@]1(c2ccccc2Cl)CCCCC1=O` [ESKETAMINE], the AC50 in [1], in experiment [2], in [3], in experiment [4], in [5] and in [6] was above 30 µM throughout. Besides, the AC50 in experiment [7] is above 30 µM; in experiment [8], above 30 µM; in [9], 13 µM.

As to `CCOC(=O)C1=C(C)NC(C)=C(C(=O)OCC)C1c1ccccc1/C=C/C(=O)OC(C)(C)C` [LACIDIPINE], the AC50 in [1], in experiment [2], in [3], in experiment [4], in experiment [5] and in experiment [6] was above 30 µM in each case. Further, the AC50 in experiment [7] is above 30 µM; in [8], above 30 µM; in [9], 8.6 µM.

`COC(=O)C1=C(C)NC(C)=C(C(=O)OCCN2CCN(C(c3ccccc3)c3ccccc3)CC2)C1c1cccc([N+](=O)[O-])c1` (stereo not given) [MANIDIPINE 6300]: the AC50 in experiment [1], in experiment [2], in [3], in experiment [4], in [5] and in experiment [6] was above 30 µM each time. Besides, the half-maximal activity concentration (AC50) is above 30 µM in [7], above 30 µM in experiment [8] and 7.9 µM in experiment [9].

On to `O=C1c2cccc3c2[C@H](CCC3)CN1[C@@H]1CN2CCC1CC2` [PALONOSETRON], for which the AC50 in experiment [1] was above 30 µM; in [2], above 30 µM; in experiment [3] it was 4 µM; in experiment [4], 0.0021 µM; in [5], above 30 µM; in [6], above 30 µM. Further, the AC50 in [7], in experiment [8] and in experiment [9] was above 30 µM each time.

In the case of `OC[C@H]1O[C@@H](n2cnc3c2NC=NC[C@H]3O)C[C@@H]1O` [PENTOSTATIN], the AC50 in experiment [1], in experiment [2], in [3], in [4], in experiment [5] and in [6] was above 30 µM in each case. In addition, the AC50 in experiment [7], in [8] and in experiment [9] was above 30 µM in each case.

In the case of `Cc1cccc(C)c1NC(=O)CC12CCCN1CCC2` [PILSICAINIDE], the AC50 in [1], in experiment [2], in [3], in [4], in experiment [5] and in experiment [6] was above 30 µM each time. Further, the AC50 in experiment [7], in experiment [8] and in experiment [9] was above 30 µM throughout.

`CC(C)c1cccc(C(C)C)c1O` [PROPOFOL]: the AC50 in experiment [1], in [2], in [3], in experiment [4], in experiment [6] and in experiment [7] was above 30 µM throughout.

As for `O=C1OC(OC(=O)c2cccnc2Nc2cccc(C(F)(F)F)c2)c2ccccc21` (stereo not given) [TALNIFLUMATE], the AC50 in experiment [1], in [2], in experiment [3], in experiment [4], in experiment [5] and in experiment [6] was above 30 µM in each case. For the same compound, the AC50 in [7], in experiment [8] and in experiment [9] was above 30 µM in each case.

Regarding `O=S1(=O)CCN(CN2CCS(=O)(=O)NC2)CN1` [TAUROLIDINE], the AC50 in experiment [1], in [3], in experiment [4], in [5], in experiment [8] and in [9] was above 30 µM each time.
